Experimental findings from article PMC3767324, “Synthesis, Characterization, and BSA Binding Studies of Some New Benzamides Related to Schiff Base” (ISRN Organic Chemistry, 2013) are described below.

Assay [1] concerns the target T1, bovine serum albumin (BSA) (Bos taurus, UniProt P02769).
T1 construct: Bovine serum albumin (BSA), one of the major components in plasma protein; purchased Sigma Aldrich Bangalore
Kind of assay: fluorescence quenching of BSA, binding parameters. The settings on record: for n (number of binding sites) / K sv (Stern-Volmer quenching constant) / K q (quenching rate constant) / shift of BSA fluorescence emission maximum wavelength: 298 K; for K sv (Stern-Volmer quenching constant): BSA 1.00 × 10^−5 mol L^−1, Tris-HCl pH 7.4; for K q (quenching rate constant): τ0 = 10^−8 s; for shift of BSA fluorescence emission maximum wavelength: excitation 280 nm, emission around 340 nm. The method, then: All the chemicals and solvents were of AR grade. Solvents were used as supplied by commercial sources without any further purification. BSA (essentially fatty-acid-free) was purchased from Sigma Aldrich Bangalore and stored in refrigerator at 4.0°C. BSA solution was prepared in the Tris-HCl buffer solution (0.05 mol L^−1 Tris, 0.15 mol L^−1 NaCl, pH 7.4) and it was kept in the dark at 298 K. The compounds were prepared as stock solutions using DMF. All other reagents were of analytical reagent grade, and double-distilled water was used during the experiment.
For each of the […] active compounds (5a, 5c, 5g, 5h, 5i, and 5j), the binding parameters with BSA molecules were measured by fluorescence spectroscopy. A solution (2.5 mL) containing 1.00 × 10^−5 mol L^−1 BSA was titrated by successive additions of 1.00 × 10^−3 mol L^−1 NABP stock solution and the concentration of NABP varied from 0 to 3.0 × 10^−5 mol L^−1 (a–g). Titrations were done manually by using microinjector. Fluorescence intensity was measured (excitation at 280 nm and emission at 340 nm). All experiments were performed at 298 K.
In order to investigate the quenching mechanism, the fluorescence quenching data K 0 and n were analyzed by the Stern-Volmer equation (2): (2) F0/F=1+Ksv[Q]=1+Kqτ0[Q], where F 0 and F denote the steady-state fluorescence intensities in the absence and in the presence of quencher, respectively, K 0 is binding constant of BSA, [Q] is the equilibrium concentration of the quencher, and n is the number of binding sites. The average lifetime, τ 0 of the molecule without quencher is 10^−8 s.
When the quenching mechanism is static, the binding parameters between BSA and compounds can be determined using (3): (3) log(F0−F)/F=log Ka+n log[Q].
The plot of log[(F 0 − F)/F] versus log[NABP], binding constant K a, and binding sites n were calculated from the intercept and slope. […] The value of n approximately equaled 1.

Assay [2] concerns Aspergillus flavus (NCIM 524). Kind of assay: agar disc diffusion, zone of inhibition. The class given is cell-based. The settings on record: Aspergillus flavus, NCIM524, 48 h. Here is the method:
(§1) The in vitro antimicrobial screening effects of the compounds (3 and 5a–j) were individually tested against a panel of bacteria and fungi including Staphylococcus aureus (NCIM 5021), Bacillus subtilis (NCIM 2999), Pseudomonas aeruginosa (NCIM 5029), Escherichia coli (NCIM 2574), Candida. albicans (NCIM 3471), and Aspergillus flavus (NCIM 524). Microbial strains were cultured overnight at 37°C in nutrient and potato dextrose agar medium. All the pure microbial strains were obtained from National Chemical Laboratory (NCL), Pune, India.
(§2) The antibacterial activity of compounds was determined by agar disc diffusion method. Briefly, a suspension of tested bacterial strains was spread on the nutrient agar medium and potato dextrose agar for fungi. The discs (6 mm in diameter) impregnated with test chemicals each dissolved in concentration (100 μg/mL in DMSO) were placed on the inoculated agar and these plates were kept at 4°C for 2 h. The plate was incubated at 37°C for 24 h in case of bacteria and 48 h at 28°C in case of fungi. streptomycin (10 μg/disc) and fluconazole (10 μg/disc) were used as the standards for antibacterial and antifungal activity, respectively. All the samples were performed in triplicate and the zone of inhibition was measured in millimeters.
In general terms: A growth-free zone around the sample is the usual read-out of agar diffusion tests.

In assay [3] the test system is Pseudomonas aeruginosa (NCIM 5029). The assay can be described thus: agar disc diffusion, zone of inhibition. The class given is cell-based. Particulars: Pseudomonas aeruginosa, NCIM5029, 24 h. The method, then: as §1, §2
For assay [4], the system named is Staphylococcus aureus (NCIM 5021). Kind of assay: agar disc diffusion, zone of inhibition. The class given is cell-based. Particulars: Staphylococcus aureus, NCIM5021, 24 h. Here is the method: as §1, §2
Assay [5] has as its system Bacillus subtilis (NCIM 2999). Kind of assay: agar disc diffusion, zone of inhibition. The class given is cell-based. Particulars: Bacillus subtilis, NCIM2999, 24 h. Here is the method:
as §1, §2

Another assay deals with A. niger. The assay can be described thus: agar disc diffusion, zone of inhibition. The class given is cell-based. Particulars: Aspergillus niger, 48 h. The method, then: [The procedure below names another organism; the source lists this organism under the same test.] as §1, §2
Assay [6] relates to Escherichia coli (NCIM 2574). The assay can be described thus: agar disc diffusion, zone of inhibition. Particulars: Escherichia coli, NCIM2574, 24 h. The class given is cell-based. Here is the method:
as §1, §2

Broadly, the Kd is the constant that tells how readily two partners part at equilibrium. A lower Kd goes with tighter binding. In general, zone of inhibition refers to the extent of the growth-free halo in a diffusion test. A lower zone of inhibition goes with a weaker effect on the plate.

T1 sequence (P02769 25-607): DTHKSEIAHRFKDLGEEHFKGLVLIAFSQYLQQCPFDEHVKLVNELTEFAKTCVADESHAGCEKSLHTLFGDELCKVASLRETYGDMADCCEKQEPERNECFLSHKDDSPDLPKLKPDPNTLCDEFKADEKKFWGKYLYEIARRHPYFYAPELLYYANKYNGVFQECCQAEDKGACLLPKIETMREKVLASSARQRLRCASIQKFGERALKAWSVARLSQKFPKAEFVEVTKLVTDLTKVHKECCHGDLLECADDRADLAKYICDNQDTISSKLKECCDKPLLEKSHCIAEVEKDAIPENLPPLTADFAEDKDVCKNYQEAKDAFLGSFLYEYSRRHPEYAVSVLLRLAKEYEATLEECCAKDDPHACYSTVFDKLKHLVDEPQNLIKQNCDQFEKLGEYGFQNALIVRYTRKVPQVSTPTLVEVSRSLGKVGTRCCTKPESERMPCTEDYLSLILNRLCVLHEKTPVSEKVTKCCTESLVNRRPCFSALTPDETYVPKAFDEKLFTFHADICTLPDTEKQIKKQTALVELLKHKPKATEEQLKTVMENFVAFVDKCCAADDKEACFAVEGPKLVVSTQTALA

In assay [1], `CC(=O)N(C(=O)c1cc(F)ccc1F)c1ccc(N=Cc2cc3ccccc3o2)cc1` [Compound 5a, N-acetyl-N-(4-((benzofuran-2-ylmethylene)amino)phenyl)-2,5-difluorobenzamide] showed a Kd of 1.9 µM. Further, the “n (number of binding sites)” value in assay [1] stood at 1.180. For the same molecule, the “K sv (Stern-Volmer quenching constant)” value in assay [1] amounted to 99600 L/mol. Further, in assay [1], the “K q (quenching rate constant)” value stood at 9.96e+12 M⁻¹ s⁻¹. For the same molecule, the “shift of BSA fluorescence emission maximum wavelength” value (from here on “shift”) in assay [1] is given as “slight blue shift”. In addition, the zone of inhibition at 100 µg/mL in assay [2] is 10.4 mm; in assay [3], 14 mm; in assay [4], 11 mm; in assay [5], 16 mm; with A. niger, 11 mm; in assay [6], 12 mm.

Regarding `CC(=O)N(C(=O)c1ccccc1)c1ccc(N=Cc2cc3ccccc3o2)cc1` [Compound 5c, N-acetyl-N -(4-((benzofuran-2-ylmethylene)amino)phenyl)benzamide], binding in assay [1] was put at a Kd of 38.6 µM. Moreover, in assay [1], the “n (number of binding sites)” value is 0.855. The “K sv (Stern-Volmer quenching constant)” value in assay [1] is 19300 L/mol. For the same molecule, the “K q (quenching rate constant)” value in assay [1] was 1.93e+12 M⁻¹ s⁻¹. In addition, the “shift” value in assay [1] is given as “red shift”. Besides, the zone of inhibition at 100 µg/mL is 15 mm in assay [2]; 12 mm in assay [3]; 11 mm in assay [4]; 10 mm in assay [5]; 9 mm with A. niger; 15 mm in assay [6].

`CC(=O)N(C(=O)c1cc(F)c(F)c(F)c1)c1ccc(N=Cc2cc3ccccc3o2)cc1` [Compound 5g, N-acetyl-N-(4-(benzofuran-2-ylmethyleneamino)phenyl)-3,4,5-trifluorobenzamide] gave a Kd in assay [1] of 6.37 µM. For the same molecule, the “n (number of binding sites)” value in assay [1] was 1.281. In assay [1], the “K sv (Stern-Volmer quenching constant)” value was determined as 79800 L/mol. In assay [1], the “K q (quenching rate constant)” value worked out at 7.98e+12 M⁻¹ s⁻¹. Moreover, the “shift” value in assay [1] is reported as “slight blue shift”. Besides, the zone of inhibition at 100 µg/mL in assay [2] amounted to 14 mm; in assay [3], 14 mm; in assay [4] it was 13.6 mm; in assay [5] it was 13.5 mm; with A. niger, 13.2 mm; in assay [6], 12.7 mm.

`CC(=O)N(C(=O)c1cc(F)cc(F)c1)c1ccc(N=Cc2cc3ccccc3o2)cc1` [Compound 5h, N-acetyl-N-(4-((benzofuran-2-ylmethylene)amino)phenyl)-3,5-difluorobenzamide]: the equilibrium dissociation constant (Kd) in assay [1] is 12.7 µM. For the same molecule, the “n (number of binding sites)” value in assay [1] is given as 1.136. Also, in assay [1], the “K sv (Stern-Volmer quenching constant)” value worked out at 21300 L/mol. Moreover, the “K q (quenching rate constant)” value in assay [1] was found to be 2.13e+12 M⁻¹ s⁻¹. The “shift” value in assay [1] is reported as “red shift”. The zone of inhibition at 100 µg/mL was 10.9 mm in assay [2]; 17 mm in assay [3]; 14 mm in assay [4]; 12 mm in assay [5]; 11.4 mm in the assay with A. niger; 11 mm in assay [6].

For the molecule `COc1ccc(C(=O)N(C(C)=O)c2ccc(N=Cc3cc4ccccc4o3)cc2)cc1` [Compound 5i, N-acetyl-N-(4-(benzofuran-2-ylmethyleneamino)phenyl)-4-methoxybenzamide], in assay [1], binding was put at a Kd of 1.57 µM. Besides, in assay [1], the “n (number of binding sites)” value was 1.208. The “K sv (Stern-Volmer quenching constant)” value in assay [1] amounted to 74000 L/mol. For the same molecule, the “K q (quenching rate constant)” value in assay [1] was 7.4e+12 M⁻¹ s⁻¹. Besides, the “shift” value in assay [1] is reported as “slight blue shift”. In addition, the zone of inhibition at 100 µg/mL in assay [2] stood at 14 mm; in assay [3] it was 13 mm; in assay [4], 14 mm; in assay [5], 10 mm; in the assay with A. niger it was 10 mm; in assay [6], 11 mm.

Regarding `CC(=O)N(C(=O)c1ccc(O)cc1)c1ccc(N=Cc2cc3ccccc3o2)cc1` [Compound 5j, N-acetyl-N-(4-((benzofuran-2-ylmethylene)amino)phenyl)-4-hydroxybenzamide], the Kd in assay [1] is 91.7 µM. Moreover, the “n (number of binding sites)” value in assay [1] was determined as 0.961. Also, the “K sv (Stern-Volmer quenching constant)” value in assay [1] amounted to 23900 L/mol. Moreover, in assay [1], the “K q (quenching rate constant)” value stood at 2.39e+12 M⁻¹ s⁻¹. In addition, the “shift” value in assay [1] is listed as “red shift”. Also, the zone of inhibition at 100 µg/mL in assay [2] was found to be 15 mm; in assay [3], 13 mm; in assay [4] it was 12 mm; in assay [5] it was 9 mm; in the assay on A. niger, 9 mm; in assay [6] it was 11 mm.
